Legend:
[1] = Plasma inositol isomers levels by glucose tolerance status (UHPLC-MSMS), withdrawn women from study 2; type: in vivo, human; details: endogenous level; for Plasma inositol isomers levels, Mean: no administration; for plasma concentration in subjects with impaired glucose tolerance or type II diabetes in comparison to normal glucose tolerance / average plasma concentration in Asian subjects in comparison to Caucasian subjects: result in words; for average plasma concentration in Asian subjects in comparison to Caucasian subjects: subjects not having prediabetes or type II diabetes
Procedure: (§1) Only withdrawn women from this study 2 were included in this sub-study. Women were from UK (N=46), NZ (N=89), SG (N=117). All the data (anthropometric and biochemical parameters) were collected and measured. Plasma and urine inositol isomers were measured using a new validated UHPLC-MSMS method. Study 2 was approved by different Institutional Review Boards and the study design published (Godfrey K M et al, Trials. 2017 Mar. 20; 18(1):131.). Subjects were classified as normoglycemic (NGT), impaired glucose tolerance (IGT), and type 2 diabetic mellitus (T2DM) based upon the results of fasting glucose and the oral glucose tolerance test (OGTT). Subjects with 2-hours glucose were levels <7.8 mmol/L were considered as normal glucose tolerant (NGT), while those with 2-hour glucose between 7.8-11.1 mmol/L were deemed as having impaired glucose tolerance (IGT). Individuals with fasting plasma glucose (IFG) level 5.6 mmol/L) were classified as having impaired fasting glucose. Both IFG and IGT subjects were grouped together. Subjects with 2-hours glucose >11.1 mmol/L were considered as having type 2 diabetic mellitus (T2DM). NGT group was further divided into 2 sub-groups named NGT with a “favorable” metabolic risk profile (abbreviated NGT_fav) and NGT with an “unfavorable” metabolic risk profile (abbreviated NGT_Unfav) to take into account the hyperinsulinemia affecting subjects in the NGT group. Inclusion criteria for NGT subjects with a favorable risk profile (NGT_fav) were the following ones: BMI<25 for Caucasian and <23 for Asian subjects; waist <80 cm; waist/hip ratio […]; HOMA2-IR<1.21. IGT/IFG and T2DM subjects were also grouped together into a dysglycemic group. In total, […] were reported: NGT_all; NGT_fav; NGT_unfav; IGT/IFG and; T2DM.
(§2) Blood samples were collected into EDTA-containing tubes and spot urine samples were collected and frozen at −80° C. until analysis. For inositol isomers determination, analysis was performed on an Accela UHPLC (Thermo Fisher Scientific Inc., Waltham, Mass., USA) coupled to a TSQ Vantage triple quadrupole (Thermo Fisher Scientific Inc., Waltham, Mass., USA) equipped with a heated electrospray ionization (HESI) source in negative mode. Chromatographic separation was achieved using gradient elution on an UHPLC Acquity BEH Amide (1.7 μm, 2.1 mm×150 mm) column and guard column (Vanguard BEH Amide 1.7 μm, 2.1 mm×10 mm; Waters Corporation, Milford, Mass., USA) at 30° C. at a flow rate of 400 μL/min. Mobile phase consisted of 90% acetonitrile-NH4OH 0.04% (eluent A) and 50% acetonitrile-NH4OH 0.04% (eluent B). Column temperature was kept at 30° C. The injection volumes were 3 μL and 5 μL for urine and plasma respectively. Plasma samples were thawed and briefly vortexed before transferring 100 μL of the sample into a 1.5 mL microtube. 50 μL of [2H6]-myo-inositol, then 500 μL of ACN containing 1% of formic acid were added for protein precipitation. The tubes were vortexed for 1 min and centrifuged at 10,000×g for 3 min. Supernatants were transferred into an SPE Ostro 96 well plate for phospholipid removal. Positive pressure (about 8 psi) was applied for elution and the filtrates were then evaporate to dryness in a vacuum centrifuge (45° C., 5 mbar, 6 h). Dry residues were dissolved in 400 μL of water and transferred into a 0.45 μm centrifugal filter containing 175 mg of mixed bed ion exchange resin Amberlite MB-3. Tubes were spun at 3000×g for 2 min then the filtrates were evaporated to dryness in vacuum centrifuge at 45° C., 5 mbar for 2 h. Finally, residues were reconstituted in vials with 80 μL of ACN/water (60/40) and injected for analysis.
Statistical analysis was performed using R software (version 3.2.3). Mean and standard deviation were calculated. The statistical model used as covariate the glucose tolerance status, the ethnicity, the menstrual cycle, the age of the subjects and the BMI. For some statistical analysis some raw data were log transformed in view of their distribution. […]

[2] = Urinary inositol isomers excretion by glucose tolerance status (UHPLC-MSMS), withdrawn women from study 2; type: in vivo, human; details: endogenous, spot urine
Procedure: as §1, §2
Urine samples were thawed and briefly vortexed before transferring 150 μL of sample into a 1.5-mL microtube. 100 μL of [2H6]-myo-inositol was added and the mixture was transferred into a 0.45 μm centrifugal filter containing 175 mg of mixed bed ion exchange resin Amberlite MB-3. […]

| SMILES | Plasma inositol isomers levels, Mean ([1]; IGT/IFG group, N=41 women) [µmol/L] | Plasma inositol isomers levels, Mean ([1]; NGT (all) group, N=182 women) [µmol/L] | Plasma inositol isomers levels, Mean ([1]; NGT_Fav group, N=63 women) [µmol/L] | Plasma inositol isomers levels, Mean ([1]; NGT_Unfav group, N=119 women) [µmol/L] | Plasma inositol isomers levels, Mean ([1]; T2DM group, N=26 women) [µmol/L] | Urinary inositol isomers excretion, Mean ([2]; IGT/IFG group) | Urinary inositol isomers excretion, Mean ([2]; NGT (all) group) | Urinary inositol isomers excretion, Mean ([2]; NGT_Fav group) | Urinary inositol isomers excretion, Mean ([2]; NGT_Unfav group) | Urinary inositol isomers excretion, Mean ([2]; T2DM group) | plasma concentration in subjects with impaired glucose tolerance or type II diabetes in comparison to normal glucose tolerance [1] | average plasma concentration in Asian subjects in comparison to Caucasian subjects [1] |
| --- | --- | --- | --- | --- | --- | --- | --- | --- | --- | --- | --- | --- |
| OC1C(O)C(O)C(O)C(O)C1O (stereo not shown) [Chiro-inositol] | 0.32 | 0.23 | 0.26 | 0.22 | 0.22 | 0.20 μmol/mmol of creatinine | 0.24 μmol/mmol of creatinine | 0.26 μmol/mmol of creatinine | 0.22 μmol/mmol of creatinine | 0.42 μmol/mmol of creatinine | – | – |
| O[C@H]1[C@H](O)[C@@H](O)[C@H](O)[C@@H](O)[C@H]1O [Myo-inositol, cis-1,2,3,5-trans-4,6cyclohexanehexol] | 23.23 | 25.91 | 25.44 | 26.16 | 24.66 | 6.35 μmol/mmol of creatinine | 9.21 μmol/mmol of creatinine | 10.86 μmol/mmol of creatinine | 8.33 μmol/mmol of creatinine | 17.97 μmol/mmol of creatinine | lower | lower |
| O[C@H]1[C@H](O)[C@@H](O)[C@H](O)[C@@H](O)[C@@H]1O [Scyllo-inositol, (1r,2r,3r,4r,5r,6r)-Cyclohexane-1,2,3,4,5,6-hexol] | 0.46 | 0.67 | 0.72 | 0.64 | 0.37 | 3.31 μmol/mmol of creatinine | 5.04 μmol/mmol of creatinine | 6.34 μmol/mmol of creatinine | 4.34 μmol/mmol of creatinine | 3.36 μmol/mmol of creatinine | lower | lower |
